{"source": "ChEMBL document CHEMBL5244280", "about": "“Evodiamine Lowers Blood Lipids by Up-Regulating the PPARγ/ABCG1 Pathway in High-Fat-Diet-Fed Mice” (J Nat Prod, 2021)", "key": {"[1]": {"test_system": "Mus musculus", "assay": "Protection against hyperlipidemia in high fat diet-fed hyperlipidemic ICR mouse model assessed as reduction in serum LDL-C content at 10 mg/kg, ig administered daily via gavage for 8 weeks by spectrophotometric analysis", "type": "functional", "conditions": "po, 1344 h"}, "[2]": {"assay": "Toxicity against normal diet-fed ICR mouse assessed as effect on plasma LDL-C content at 10 mg/kg, ig administered daily via gavage for 8 weeks by spectrophotometric analysis", "type": "organism-based", "conditions": "in vivo, po, 1344 h"}, "[3]": {"assay": "Toxicity against normal diet-fed ICR mouse assessed as effect on plasma HDL-C content at 10 mg/kg, ig administered daily via gavage for 8 weeks by spectrophotometric analysis", "type": "organism-based", "conditions": "in vivo, po, 1344 h"}, "[4]": {"test_system": "Mus musculus", "assay": "Protection against hyperlipidemia in high fat diet-fed hyperlipidemic ICR mouse model assessed as reduction in body weight at 10 mg/kg, ig administered daily via gavage for 8 weeks", "type": "functional", "conditions": "po, 1344 h"}, "[5]": {"assay": "Toxicity in normal diet fed ICR mouse assessed as body weight loss at 10 mg/kg, ig administered daily via gavage for 8 weeks", "type": "organism-based", "conditions": "in vivo, po, 1344 h"}, "[6]": {"assay": "Toxicity in normal diet fed ICR mouse assessed as effect on food intake at 10 mg/kg, ig administered daily via gavage for 8 weeks", "type": "organism-based", "conditions": "in vivo, po, 1344 h"}, "[7]": {"assay": "Toxicity in normal diet fed ICR mouse assessed as ratio of liver weight to body weight at 10 mg/kg, ig administered daily via gavage for 8 weeks (reference value: 3.74 +/-0.53)", "type": "organism-based", "conditions": "in vivo, po, 1344 h"}, "[8]": {"assay": "Toxicity in normal diet fed ICR mouse assessed as ratio of spleen weight to body weight at 10 mg/kg, ig administered daily via gavage for 8 weeks (reference value: 0.42 +/-0.08)", "type": "organism-based", "conditions": "in vivo, po, 1344 h"}, "[9]": {"assay": "Toxicity in high fat diet fed hyperlipidemic ICR mouse model assessed as ratio of heart weight to body weight at 10 mg/kg, ig administered daily via gavage for 8 weeks (reference value: 0.48 +/-0.03)", "type": "organism-based", "conditions": "in vivo, po, 1344 h"}, "[10]": {"assay": "Toxicity in high fat diet fed hyperlipidemic ICR mouse model assessed as ratio of lung weight to body weight at 10 mg/kg, ig administered daily via gavage for 8 weeks (reference value: 0.93 +/-0.28)", "type": "organism-based", "conditions": "in vivo, po, 1344 h"}, "[11]": {"assay": "Toxicity in high fat diet fed hyperlipidemic ICR mouse model assessed as ratio of stomach weight to body weight at 10 mg/kg, ig administered daily via gavage for 8 weeks (reference value: 1.41 +/-0.34)", "type": "organism-based", "conditions": "in vivo, po, 1344 h"}, "[12]": {"test_system": "Mus musculus", "assay": "Protection against hyperlipidemia in high fat diet-fed hyperlipidemic ICR mouse model assessed as reduction in vacuolar degeneration of hepatocytes at 10 mg/kg, ig administered daily via gavage for 8 weeks by Hematoxylin-eosin staining based analysis", "type": "functional, organism-based"}, "[13]": {"test_system": "Mus musculus", "assay": "Protection against hyperlipidemia in high fat diet-fed hyperlipidemic ICR mouse model assessed as reduction in hepatic triglyceride content at 10 mg/kg, ig administered daily via gavage for 8 weeks by colorimetric assay", "type": "functional", "conditions": "po, 1344 h"}, "[14]": {"assay": "Toxicity in normal diet fed ICR mouse assessed as liver morphological changes at 10 mg/kg, ig administered daily via gavage for 8 weeks", "type": "organism-based", "conditions": "in vivo, po, 1344 h"}, "[15]": {"assay": "Toxicity in normal diet fed ICR mouse assessed as hepatic triglyceride content at 10 mg/kg, ig administered daily via gavage for 8 weeks by colorimetric assay", "type": "organism-based", "conditions": "in vivo, po, 1344 h"}, "[16]": {"test_system": "Mus musculus", "assay": "Upregulation of SR-B1 protein expression in liver of normal diet fed ICR mouse at 10 mg/kg, ig administered daily via gavage for 8 weeks by western blotting analysis", "type": "functional, organism-based"}, "[17]": {"test_system": "Mus musculus", "assay": "Upregulation of ABCG5 protein expression in liver of high fat diet fed hyperlipidemic ICR mouse model at 10 mg/kg, ig administered daily via gavage for 8 weeks by western blotting analysis", "type": "functional, organism-based"}, "[18]": {"test_system": "Mus musculus", "assay": "Upregulation of ABCG8 protein expression in liver of high fat diet fed hyperlipidemic ICR mouse model at 10 mg/kg, ig administered daily via gavage for 8 weeks by western blotting analysis", "type": "functional, organism-based"}, "[19]": {"test_system": "Mus musculus", "assay": "Upregulation of NPC1L1 protein expression in liver of high fat diet fed hyperlipidemic ICR mouse model at 10 mg/kg, ig administered daily via gavage for 8 weeks by western blotting analysis", "type": "functional, organism-based"}, "[20]": {"test_system": "Mus musculus", "assay": "Upregulation of SR-B1 mRNA expression in liver of high fat diet fed hyperlipidemic ICR mouse model at 10 mg/kg, ig administered daily via gavage for 8 weeks by qPCR analysis", "type": "functional, organism-based"}, "[21]": {"test_system": "Mus musculus", "assay": "Upregulation of ABCG5 mRNA expression in liver of high fat diet fed hyperlipidemic ICR mouse model at 10 mg/kg, ig administered daily via gavage for 8 weeks by qPCR analysis", "type": "functional, organism-based"}, "[22]": {"biological_target": "T1, Peroxisome proliferator-activated receptor gamma (Homo sapiens) (UniProt P37231)", "T1 sequence (whole entry)": "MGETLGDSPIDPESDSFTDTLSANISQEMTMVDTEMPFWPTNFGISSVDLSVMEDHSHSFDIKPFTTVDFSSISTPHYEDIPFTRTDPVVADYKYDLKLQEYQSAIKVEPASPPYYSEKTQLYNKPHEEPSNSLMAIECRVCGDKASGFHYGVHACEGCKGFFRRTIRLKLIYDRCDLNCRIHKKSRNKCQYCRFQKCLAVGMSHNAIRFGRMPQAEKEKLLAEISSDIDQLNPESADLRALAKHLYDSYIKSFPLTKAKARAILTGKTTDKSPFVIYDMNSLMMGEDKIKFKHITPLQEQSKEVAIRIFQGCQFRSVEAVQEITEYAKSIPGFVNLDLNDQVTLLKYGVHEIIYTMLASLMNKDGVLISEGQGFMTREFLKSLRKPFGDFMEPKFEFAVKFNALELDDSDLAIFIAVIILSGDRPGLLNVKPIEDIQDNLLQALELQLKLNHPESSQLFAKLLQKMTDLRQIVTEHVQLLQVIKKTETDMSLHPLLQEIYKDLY", "assay": "Agonist activity at human PPAR-gamma expressed in HEK293 cells co-transfected with luciferase reporter plasmid assessed as receptor transactivation at 10 uM incubated for 18 hrs by luciferase reporter gene assay relative to control", "type": "cell-based"}, "[23]": {"test_system": "HEK293", "assay": "Agonist activity at human PPAR-beta expressed in HEK293 cells co-transfected with luciferase reporter plasmid assessed as receptor transactivation at 10 uM incubated for 18 hrs by luciferase reporter gene assay relative to control", "type": "cell-based"}, "[24]": {"biological_target": "T2, Retinoic acid receptor RXR-alpha (Homo sapiens) (UniProt P19793)", "T2 sequence (whole entry)": "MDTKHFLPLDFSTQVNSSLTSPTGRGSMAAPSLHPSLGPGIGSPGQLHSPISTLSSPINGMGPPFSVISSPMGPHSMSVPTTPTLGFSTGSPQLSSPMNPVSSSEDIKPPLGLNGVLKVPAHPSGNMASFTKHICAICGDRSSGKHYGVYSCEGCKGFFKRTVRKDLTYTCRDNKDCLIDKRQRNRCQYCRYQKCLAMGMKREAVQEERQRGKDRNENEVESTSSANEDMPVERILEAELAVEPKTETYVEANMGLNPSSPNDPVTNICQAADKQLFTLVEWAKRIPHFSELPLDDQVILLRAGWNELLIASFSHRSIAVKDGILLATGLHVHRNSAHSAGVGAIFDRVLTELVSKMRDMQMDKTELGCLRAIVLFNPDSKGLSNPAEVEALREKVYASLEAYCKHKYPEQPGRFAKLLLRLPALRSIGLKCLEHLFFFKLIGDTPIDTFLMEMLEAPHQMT", "assay": "Agonist activity at human RXR-alpha expressed in HEK293 cells co-transfected with luciferase reporter plasmid assessed as receptor transactivation at 10 uM incubated for 18 hrs by luciferase reporter gene assay relative to control", "type": "cell-based"}}, "note": "Active and inactive are the calls of the source. The rule behind the calls is not given here."}
{"smiles": "CN1c2ccccc2C(=O)N2CCc3c([nH]c4ccccc34)C21", "note": "(centres undefined)", "values": [{"measurement": "inhibition in vivo at 10 mg/kg", "setting": "[1]", "value": 65.1, "unit": "%"}, {"measurement": "Activity", "setting": "[2]", "value": "Non-Toxic"}, {"measurement": "Activity", "setting": "[3]", "value": "Non-Toxic"}, {"measurement": "inhibition in vivo at 10 mg/kg", "setting": "[4]", "value": 68.1, "unit": "%"}, {"measurement": "Activity", "setting": "[5]", "value": "Toxic"}, {"measurement": "Activity", "setting": "[6]", "value": "Non-Toxic"}, {"measurement": "Ratio", "setting": "[7]", "value": 3.64}, {"measurement": "Ratio", "setting": "[8]", "value": 0.41}, {"measurement": "Ratio", "setting": "[9]", "value": 0.48}, {"measurement": "Ratio", "setting": "[10]", "value": 0.81}, {"measurement": "Ratio", "setting": "[11]", "value": 1.22}, {"measurement": "Activity", "setting": "[12]", "value": "Active"}, {"measurement": "inhibition in vivo at 10 mg/kg", "setting": "[13]", "value": 33.2, "unit": "%"}, {"measurement": "Activity", "setting": "[14]", "value": "Non-Toxic"}, {"measurement": "Activity", "setting": "[15]", "value": "Non-Toxic"}, {"measurement": "Activity", "setting": "[16]", "value": "Active"}, {"measurement": "Activity", "setting": "[17]", "value": "inactive"}, {"measurement": "Activity", "setting": "[18]", "value": "inactive"}, {"measurement": "Activity", "setting": "[19]", "value": "inactive"}, {"measurement": "Activity", "setting": "[20]", "value": "inactive"}, {"measurement": "Activity", "setting": "[21]", "value": "inactive"}, {"measurement": "fold change (FC)", "setting": "[22]", "value": 0.49}, {"measurement": "fold change (FC)", "setting": "[23]", "value": 1.53}, {"measurement": "fold change (FC)", "setting": "[24]", "value": 1.04}]}
